Experimental data: ChEMBL document CHEMBL3745645, “Synthesis, in vitro antitumor activity, dihydrofolate reductase inhibition, DNA intercalation and structure-activity relationship studies of 1,3,5-triazine analogues” (Bioorg Med Chem Lett, 2016)
Calls of active or inactive are those of the source. No cut-off for these calls is given here.

Experiments:
[1] = test system: MCF7; test: Cytotoxicity against human MCF7 cells after 48 hrs by SRB assay; assay type: functional; settings: MCF7, 48 h, pooled result: one value given for 6 cell lines, strains, targets or settings
[2] = test system: M14; test: Cytotoxicity against human M14 cells at 10 uM after 48 hrs by SRB assay; assay type: functional
[3] = test system: CCRF-CEM; test: Cytotoxicity against human CCRF-CEM cells after 48 hrs by SRB assay; assay type: functional; settings: for GI50 / TGI: pooled result: one value given for 6 cell lines, strains, targets or settings
[4] = test system: K562; test: Cytotoxicity against human K562 cells at 10 uM after 48 hrs by SRB assay; assay type: functional; settings: K562, 48 h, read-out: GI
[5] = test system: 786-0; test: Cytotoxicity against human 786-0 cells at 10 uM after 48 hrs by SRB assay; assay type: functional
[6] = Cytotoxicity against human DU145 cells after 48 hrs by SRB assay; assay type: functional; settings: DU-145, 48 h, read-out: LC50 (the source's name)
[7] = Cytotoxicity against human HL-60(TB) cells after 48 hrs by SRB assay; assay type: functional; settings: HL-60, 48 h, read-out: LC50 (the source's name)
[8] = target: T1, Dihydrofolate reductase (Homo sapiens, UniProt P00374); test: Inhibition of human recombinant DHFR expressed in Escherichia coli by spectrophotometric analysis
T1 sequence (P00374 whole entry): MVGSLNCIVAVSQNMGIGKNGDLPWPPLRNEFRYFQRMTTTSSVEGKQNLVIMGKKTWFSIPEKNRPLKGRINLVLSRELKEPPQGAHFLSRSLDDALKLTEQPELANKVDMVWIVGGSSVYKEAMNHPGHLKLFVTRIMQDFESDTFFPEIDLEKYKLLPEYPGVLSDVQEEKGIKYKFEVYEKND

[9] = test system: SN12C; test: Cytotoxicity against human SN12C cells at 10 uM after 48 hrs by SRB assay; assay type: functional
[10] = Cytotoxicity against human Hs 578T cells at 10 uM after 48 hrs by SRB assay; assay type: functional; settings: read-out: GI
[11] = test system: A549; test: Cytotoxicity against human A549 cells after 48 hrs by SRB assay; assay type: functional; settings: A549, 48 h, pooled result: one value given for 8 cell lines, strains, targets or settings
[12] = Cytotoxicity against human SF268 cells after 48 hrs by SRB assay; assay type: functional; settings: SF-268, 48 h, pooled result: one value given for 6 cell lines, strains, targets or settings
[13] = test system: SR; test: Cytotoxicity against human SR cells at 10 uM after 48 hrs by SRB assay; assay type: functional
[14] = test system: K562; test: Cytotoxicity against human K562 cells after 48 hrs by SRB assay; assay type: functional; settings: K562, 48 h
[15] = test system: NCI-H522; test: Cytotoxicity against human NCI-H522 cells at 10 uM after 48 hrs by SRB assay; assay type: functional
[16] = test system: SR; test: Cytotoxicity against human SR cells after 48 hrs by SRB assay; assay type: functional
[17] = test system: A549; test: Cytotoxicity against human A549 cells at 10 uM after 48 hrs by SRB assay; assay type: functional
[18] = test system: NCI-H322M; test: Cytotoxicity against human NCI-H322M cells at 10 uM after 48 hrs by SRB assay; assay type: functional; settings: read-out: GI
[19] = Cytotoxicity against human MOLT4 cells after 48 hrs by SRB assay; assay type: functional; settings: MOLT-4, 48 h, read-out: LC50 (the source's name)
[20] = test system: HT-29; test: Cytotoxicity against human HT-29 cells at 10 uM after 48 hrs by SRB assay; assay type: functional
[21] = test system: CCRF-CEM; test: Cytotoxicity against human CCRF-CEM cells at 10 uM after 48 hrs by SRB assay; assay type: functional
[22] = Cytotoxicity against human LOXIMVI cells after 48 hrs by SRB assay; assay type: functional; settings: LOX IMVI, pooled result: one value given for 9 cell lines, strains, targets or settings
[23] = test system: 786-0; test: Cytotoxicity against human 786-0 cells after 48 hrs by SRB assay; assay type: functional; settings: 786-0, 48 h, pooled result: one value given for 8 cell lines, strains, targets or settings
[24] = test system: A498; test: Cytotoxicity against human A498 cells at 10 uM after 48 hrs by SRB assay; assay type: functional
[25] = test system: NCI-H226; test: Cytotoxicity against human NCI-H226 cells at 10 uM after 48 hrs by SRB assay; assay type: functional
[26] = Cytotoxicity against human PC3 cells after 48 hrs by SRB assay; assay type: functional; settings: PC-3, 48 h; for GI50 / TGI: pooled result: one value given for 2 cell lines, strains, targets or settings
[27] = test system: Calf thymus DNA; test: Binding affinity to calf thymus DNA assessed as melting temperature by spectrophotometric analysis (reference value: 60 degC); assay type: nucleic-acid assay; settings: Bos taurus
[28] = test system: Malme-3M; test: Cytotoxicity against human MALME-3M cells at 10 uM after 48 hrs by SRB assay; assay type: functional
[29] = Cytotoxicity against human SW620 cells at 10 uM after 48 hrs by SRB assay; assay type: functional; settings: SW-620, 48 h, read-out: GI
[30] = Cytotoxicity against human COLO205 cells at 10 uM after 48 hrs by SRB assay; assay type: functional; settings: COLO 205, 48 h, read-out: GI
[31] = Cytotoxicity against human RXF393 cells at 10 uM after 48 hrs by SRB assay; assay type: functional; settings: RXF 393, 48 h, read-out: GI
[32] = Cytotoxicity against human IGROV1 cells at 10 uM after 48 hrs by SRB assay; assay type: functional; settings: IGROV-1, 48 h, read-out: GI
[33] = Cytotoxicity against human SF539 cells at 10 uM after 48 hrs by SRB assay; assay type: functional; settings: SF-539, 48 h, read-out: GI
[34] = Cytotoxicity against human LOXIMVI cells at 10 uM after 48 hrs by SRB assay; assay type: functional; settings: LOX IMVI, read-out: GI
[35] = Cytotoxicity against human MOLT4 cells at 10 uM after 48 hrs by SRB assay; assay type: functional; settings: MOLT-4, 48 h, read-out: GI
[36] = Cytotoxicity against human SKOV3 cells at 10 uM after 48 hrs by SRB assay; assay type: functional; settings: SK-OV-3, 48 h, read-out: GI
[37] = Cytotoxicity against human OVCAR5 cells at 10 uM after 48 hrs by SRB assay; assay type: functional; settings: OVCAR-5, 48 h, read-out: GI
[38] = Cytotoxicity against human SNB75 cells at 10 uM after 48 hrs by SRB assay; assay type: functional; settings: SNB-75, 48 h, read-out: GI
[39] = Cytotoxicity against human SF268 cells at 10 uM after 48 hrs by SRB assay; assay type: functional; settings: SF-268, 48 h, read-out: GI
[40] = Cytotoxicity against human OVCAR3 cells at 10 uM after 48 hrs by SRB assay; assay type: functional; settings: OVCAR-3, 48 h, read-out: GI
[41] = Cytotoxicity against human DU145 cells at 10 uM after 48 hrs by SRB assay; assay type: functional; settings: DU-145, 48 h, read-out: GI

`Cc1nc2cc(Nc3nc(Nc4ccc(F)cc4)nc(N4CCCC4)n3)ccc2n1Cc1ccccc1` gave a GI50 [1] of 1.98 µM, an LC50 (concentration killing 50% of cells) [1] of 6.69 µM and a TGI [1] of 4.88 µM. For the same compound, the “growth inhibition (GI)” value [2] was “Active”, the LC50 [3] was greater than 100 µM and the GI50 [3] was 2.54 µM. For the same compound, the TGI [3] was 5.28 µM, the inhibition of growth at 10 µM [4] was 100% and the “growth inhibition (GI)” value [5] was “Active”. It also gave a CC50 [6] of 6 µM, a CC50 [7] greater than 100 µM and an IC50 [8] of 0.11 µM. The “growth inhibition (GI)” value [9] was “Active”, the inhibition of growth at 10 µM [10] was 69.4% and the GI50 [11] was 1.82 µM. For the same compound, the LC50 [11] was 14.5 µM, the TGI [11] was 4.02 µM and the GI50 [12] was 2.08 µM. For the same compound, the LC50 (concentration killing 50% of cells) [12] was 8.64 µM, the TGI [12] was 17.6 µM and the “growth inhibition (GI)” value [13] was “Active”. For the same compound, the LC50 [14] was greater than 100 µM, the “growth inhibition (GI)” value [15] was “Active” and the LC50 (concentration killing 50% of cells) [16] was greater than 100 µM. For the same compound, the “growth inhibition (GI)” value [17] was “Active”, the inhibition of growth at 10 µM [18] was 78.6% and the CC50 [19] was greater than 100 µM. For the same compound, the “growth inhibition (GI)” value [20] was “Active”, the “growth inhibition (GI)” value [21] was “Active” and the GI50 [22] was 1.81 µM. The LC50 [22] was 13.7 µM, the TGI [22] was 3.68 µM and the GI50 [23] was 1.75 µM. For the same compound, the LC50 (concentration killing 50% of cells) [23] was 1.26 µM, the TGI [23] was 3.56 µM and the “growth inhibition (GI)” value [24] was “Active”. The “growth inhibition (GI)” value [25] was “Active”, the LC50 [26] was 6 µM and the GI50 [26] was 1.82 µM. The TGI [26] was 3.82 µM, the Tm [27] was 71.5 °C and the “growth inhibition (GI)” value [28] was “Active”.

Work on `Cc1nc2cc(Nc3nc(Nc4ccc(F)cc4)nc(-c4ccc(Cl)cc4)n3)ccc2n1Cc1ccccc1` yielded a GI50 [1] of 6.46 µM, an LC50 (concentration killing 50% of cells) [1] greater than 100 µM and a TGI [1] of 50.8 µM. For the same compound, the inhibition of growth at 10 µM ([2]; M14, 48 h, read-out: GI) was 41.7%, the LC50 [3] was greater than 100 µM and the GI50 [3] was 3.39 µM. For the same compound, the TGI [3] was 9.55 µM, the inhibition of growth at 10 µM [29] was 31.9% and the inhibition of growth at 10 µM [4] was 66.3%. For the same compound, the inhibition of growth at 10 µM [30] was 38.2%, the inhibition of growth at 10 µM [31] was 31.5% and the inhibition of growth at 10 µM [32] was 51.3%. For the same compound, the inhibition of growth at 10 µM ([5]; 786-0, 48 h, read-out: GI) was 8.96%, the inhibition of growth at 10 µM [33] was 7.42% and the CC50 [6] was greater than 100 µM. It also gave a CC50 [7] greater than 100 µM, an inhibition of growth at 10 µM [34] of 23.4% and an inhibition of growth at 10 µM [35] of 99.2%. For the same compound, the IC50 [8] was 42.4 µM, the inhibition of growth at 10 µM ([9]; read-out: GI) was 22.9% and the inhibition of growth at 10 µM [10] was 24.6%. The GI50 [11] was 8.37 µM, the LC50 [11] was 83.8 µM and the TGI [11] was 38.6 µM. For the same compound, the inhibition of growth at 10 µM [36] was 7.08%, the GI50 [12] was 8.44 µM and the LC50 (concentration killing 50% of cells) [12] was 61.4 µM. The TGI [12] was 48.6 µM, the “growth inhibition (GI)” value [13] was “Active” and the LC50 [14] was greater than 100 µM. It also gave an inhibition of growth at 10 µM ([15]; NCI-H522, 48 h, read-out: GI) of 17.2%, an LC50 (concentration killing 50% of cells) [16] greater than 100 µM and an inhibition of growth at 10 µM ([17]; A549, 48 h, read-out: GI) of 42.6%. It also gave an inhibition of growth at 10 µM [18] of 5.98%, an inhibition of growth at 10 µM [37] of 7.71% and a CC50 [19] greater than 100 µM. It also gave an inhibition of growth at 10 µM ([20]; HT-29, 48 h, read-out: GI) of 44.2%, an inhibition of growth at 10 µM [38] of 34.8% and an inhibition of growth at 10 µM ([21]; read-out: GI) of 96.1%. The GI50 [22] was 6.36 µM, the LC50 [22] was 80.6 µM and the TGI [22] was 31.7 µM. The GI50 [23] was 11.5 µM, the LC50 (concentration killing 50% of cells) [23] was greater than 100 µM and the TGI [23] was 45.4 µM. It also gave an inhibition of growth at 10 µM [39] of 45.1%, an inhibition of growth at 10 µM [40] of 42.7% and an inhibition of growth at 10 µM ([24]; A498, 48 h, read-out: GI) of 29.7%. It also gave an inhibition of growth at 10 µM ([25]; NCI-H226, 48 h, read-out: GI) of 13.5%, an LC50 [26] greater than 100 µM and a GI50 [26] of 13.5 µM. The TGI [26] was greater than 100 µM, the inhibition of growth at 10 µM ([28]; read-out: GI) was 27.5% and the inhibition of growth at 10 µM [41] was 18.6%.
